# From patent US20250236616A1, “IMMUNOMODULATING AZALIDES” (Zoetis Services LLC, priority 2021, published 2025)
# Marks after values point to notes of the source that are not given here.
# Legend:
# TNF-α = assay: Whole bovine blood assay, LPS-induced TNF-α; assay type: cell-based; conditions: fresh whole bovine blood, LPS stimulant
# Method in brief: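 Fresh heparinized bovine whole blood was preincubated with compound 4 h at 37 °C, then stimulated with LPS (final 1 μg/mL) for 18 h at 37 °C. Plasma TNF-α was quantified by MSD U-Plex chemiluminescent immunoassay, normalized to total protein (BCA), and IC50 taken for LPS-induced TNF-α inhibition.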
# IL-1β = assay: Whole bovine blood assay, LPS-induced IL-1β (inhibition / overstimulation); assay type: cell-based; conditions: drug concentration giving overstimulation (OS) of LPS-induced IL-1β
# Method in brief: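 IL-1β was quantified by MSD U-Plex chemiluminescence in plasma and normalized to BCA total protein. Bovine blood was pretreated 4 h at 37 °C with compound dilutions before 18 h LPS challenge (1 μg/mL final). Rising IL-1β at high concentrations was recorded as overstimulation.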
# P. multocida 46572 = assay: In vivo mouse lung infection challenge model (murine efficacy), survival; set-up: species or system CD-1 female mice; conditions: P. multocida 46572 intranasal challenge; 20 mg/kg subcutaneous; harmonized relative to vehicle (−) and M9 (+) controls
# Method: The challenge organism was P. multocida 46572. Target challenge concentration was 5×10^2 CFU/mouse. Isolated colonies from overnight growth (37° C. with 5% CO2) on trypticase soy agar (TSA II) blood plates were transferred to room temperature Brain Heart Infusion Broth (BHIB). The broth culture was incubated 3.5-4 hours to approximately mid-log phase of growth, as measured by forward light scatter at 600 nm (OD600, 0.200). The culture was centrifuged to collect the bacterial pellet. The pellet was re-suspended in BHIB and adjusted to provide an approximate concentration of 2.7 log 10 colony forming units (CFU) in 0.04 mL at the highest concentration. The challenge inoculum concentration was confirmed by serial dilutions of the inoculum for CFU enumeration. On Day −5, CD −1 female mice were received. Mice were given standard rodent diet and water ad libitum. On Day 0, bacterial inoculum (0.04 mL) was administered to each mouse (n=36) intranasally. Compounds of the invention were dosed at 20 mg/kg (0.1 mL) in a buffered (˜pH 5.4) propylene glycol, monothioglycerol and water solution by subcutaneous injection. Animals were observed from Days 1-10. The study was terminated on Day 10. In addition, some treatment groups were sampled at 6, 24, and 48 hours post bacterial challenge for RNA sequence analysis of lung tissue.
# The murine efficacy model (P.multocida challenge) was optimized, and the treatment group size was powered to be able to observe statistically significant improvement of survival to expected ranges for immunomodulatory compounds. The experimental design was a randomized complete block design. Mice were individually identified and treatment groups comingled within a cage, with every treatment group equally represented across cages. Mortality was the primary variable. Mortality data was analyzed using a generalized mixed model with fixed effect of treatment and random effect of block. Survival time was also analyzed using the SAS PHREG (survival analysis) procedure to examine whether there were significant differences between treatment groups and the control group. Numerous compounds of the invention and M9 (positive control) were tested in this model at a dose of 20 mg/kg (Table 3). Typical percent survival for no treatment control is in the range of 0-20% based on study to study variation in challenge inoculum and rate of infection. […] Mouse survival for M9 was about 90-100%, further supporting its residual antibacterial properties against the bacterial strain.
# IL-6 = assay: Whole bovine blood assay, LPS-induced IL-6; assay type: cell-based; conditions: fresh whole bovine blood, LPS stimulant, top drug concentration 250 μM
# [1] = tested on: BRD pathogens, M. haemolytica and P. multocida; assay: MIC screening panel, BRD pathogens (CLSI broth micro-dilution); assay type: cell-based; conditions: Table A; at least one BRD pathogenic strain; top concentration 64 μg/mL
# Method in brief: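 MICs were determined by CLSI broth micro-dilution in cation-adjusted Mueller Hinton Broth at about 5×10^5 CFU/mL, with QC strains included. Incubation was 18-22 h at 35-37° C. in air, 5% CO2 or anaerobically (up to 48 h) depending on strain. BRD pathogens were first tested at a top concentration of 64 μg/mL in an eleven-point dilution series.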
# [2] = Bos taurus, top drug concentration 250 μM
# [3] = Bos taurus, 18 h, top concentration 250 μM
# [4] = Bos taurus, dose of 500 μM (footnote ^)
# [5] = Bos taurus, 18 h, dose of 500 μM (footnote ^)
SMILES,IC50 (TNF-α; [2]) [µM],% Survival (P. multocida 46572) [%],minimal effective concentration (IL-1β; top concentration 250 μM) [µM],further results
"CC[C@H]1OC(=O)[C@H](C)[C@@H](O[C@H]2C[C@@](C)(OC)[C@](O)(CNCCCN3CCCCC3)[C@H](C)O2)[C@H](C)[C@@H](O[C@@H]2O[C@H](C)C[C@H](N(C)S(=O)(=O)c3ccc(Cl)cc3)[C@H]2O)[C@](C)(O)C[C@@H](C)CN[C@H](C)[C@@H](O)[C@]1(C)O [Example B-58, 4-chloro-N-((2S,3R,4S,6R)-2-(((2R,3S,4R,5R,8R,10R,11R,12S,13S, 14R)-2-ethyl-3,4,10-trihydroxy-13-(((2R,4R,5S,6S)-5-hydroxy-4-methoxy-4,6-dimethyl-5-(((3-(piperidin-1-yl)propyl)amino)methyl)tetrahydro-2H-pyran-2-yl)oxy)-3,5,8,10,12,14-hexamethyl-15-oxo-1-oxa-6-azacyclopentadecan-11-yl)oxy)-3-hydroxy-6-methyltetrahydro-2H-pyran-4-yl)-N-methylbenzenesulfonamide]",29,32,–,minimal effective concentration (IL-1β; [3]): 40 µM; IC50 (IL-6; Bos taurus): 75 µM
"CC[C@H]1OC(=O)[C@H](C)[C@@H](O)[C@H](C)[C@@H](O[C@@H]2O[C@H](C)C[C@H](N(C)S(=O)(=O)c3ccccc3)[C@H]2Oc2ccc(OC)c(OC)c2)[C@](C)(O)C[C@@H](C)CN[C@H](C)[C@@H](O)[C@]1(C)O [Example A-8, N-((2S,3R,4S,6R)-3-(3,4-dimethoxyphenoxy)-2-(((2R,3S,4R,5R,8R,10R,11R,12S,13S,14R)-2-ethyl-3,4, 10, 13-tetrahydroxy-3,5,8,10,12,14-hexamethyl-15-oxo-1-oxa-6-azacyclopentadecan-11-yl)oxy)-6-methyltetrahydro-2H-pyran-4-yl)-N-methylbenzenesulfonamide]",40,20,–,minimal effective concentration (IL-1β; [3]): 100 µM
"CCCNC[C@]1(O)[C@H](C)O[C@@H](O[C@H]2[C@H](C)[C@@H](O[C@@H]3O[C@H](C)C[C@H](N(C)S(=O)(=O)Nc4ccccc4)[C@H]3O)[C@](C)(O)C[C@@H](C)CN[C@H](C)[C@@H](O)[C@](C)(O)[C@@H](CC)OC(=O)[C@@H]2C)C[C@@]1(C)OC [Example B-48, (2R,3S,4R,5R,8R,10R,11R,12S,13S, 14R)-2-ethyl-3,4,10-trihydroxy-13-[(2R,4R,5S,6S)-5-hydroxy-4-methoxy-4,6-dimethyl-5-(propylaminomethyl)oxan-2-yl]oxy-11-[(2S,3R,4S,6R)-3-hydroxy-6-methyl-4-[methyl(phenylsulfamoyl)amino]oxan-2-yl]oxy-3,5,8,10,12,14-hexamethyl-15-oxo-1-oxa-6-azacyclopentadecane]",–,33,–,IC50 (TNF-α; [4]): 25 µM; minimal effective concentration (IL-1β; [5]): 32 µM
"CCCNC[C@]1(O)[C@H](C)O[C@@H](O[C@H]2[C@H](C)[C@@H](O[C@@H]3O[C@H](C)C[C@H](N(C)S(=O)(=O)c4ccc(C(F)(F)F)cc4)[C@H]3O)[C@](C)(O)C[C@@H](C)CN[C@H](C)[C@@H](O)[C@](C)(O)[C@@H](CC)OC(=O)[C@@H]2C)C[C@@]1(C)OC [Example B-14, N-((2S,3R,4S,6R)-2-(((2R,3S,4R,5R,8R,10R,11R,12S,13S,14R)-2-ethyl-3,4,10-trihydroxy-13-(((2R,4R,5S,6S)-5-hydroxy-4-methoxy-4,6-dimethyl-5-((propylamino)methyl)tetrahydro-2H-pyran-2-yl)oxy)-3,5,8,10,12,14-hexamethyl-15-oxo-1-oxa-6-azacyclopentadecan-11-yl)oxy)-3-hydroxy-6-methyltetrahydro-2H-pyran-4-yl)-N-methyl-4-(trifluoromethyl)benzenesulfonamide]",–,16,–,–
"CCCNC[C@]1(O)[C@H](C)O[C@@H](O[C@H]2[C@H](C)[C@@H](O[C@@H]3O[C@H](C)C[C@H](N(C)S(=O)(=O)N(C)c4ccc(C(F)(F)F)cc4)[C@H]3O)[C@](C)(O)C[C@@H](C)CN[C@H](C)[C@@H](O)[C@](C)(O)[C@@H](CC)OC(=O)[C@@H]2C)C[C@@]1(C)OC [Example B-113, (2R,3S,4R,5R,8R,10R,11R,12S,13S,14R)-2-ethyl-3,4, 10-trihydroxy-13-[(2R,4R,5S,6S)-5-hydroxy-4-methoxy-4,6-dimethyl-5-(propylaminomethyl)oxan-2-yl]oxy-11-[(2S,3R,4S,6R)-3-hydroxy-6-methyl-4-[methyl-[methyl-[4-(trifluoromethyl)phenyl]sulfamoyl]amino]oxan-2-yl]oxy-3,5,8, 10, 12, 14-hexamethyl-1-oxa-6-azacyclopentadecan-15-one]",7,59,–,–
CC[C@H]1OC(=O)[C@H](C)[C@@H](O)[C@H](C)[C@@H](O[C@@H]2O[C@H](C)C[C@H](N(C)S(=O)(=O)c3scnc3C)[C@H]2Oc2ccc(F)cc2)[C@](C)(O)C[C@@H](C)CN[C@H](C)[C@@H](O)[C@]1(C)O [Example A-26],–,–,16,MIC flag (*) for BRD pathogenic strains [1]: A-26* (MIC ≤64 μg/mL for at least one BRD pathogenic strain); IC50 (TNF-α; top drug concentration 250 μM): 130 µM; IC50 (IL-6): 49 µM
"CCCNC[C@]1(O)[C@H](C)O[C@@H](O[C@H]2[C@H](C)[C@@H](O[C@@H]3O[C@H](C)C[C@H](N(C)S(=O)(=O)c4ccc(Cl)cc4)[C@H]3O)[C@](C)(O)C[C@@H](C)CN[C@H](C)[C@@H](O)[C@](C)(O)[C@@H](CC)OC(=O)[C@@H]2C)C[C@@]1(C)OC [Example B-60, 4-chloro-N-((2S,3R,4S,6R)-2-(((2R,3S,4R,5R,8R,10R,11R, 12S,13S, 14R)-2-ethyl-3,4,10-trihydroxy-13-(((2R,4R,5S,6S)-5-hydroxy-4-methoxy-4,6-dimethyl-5-((propylamino)methyl)tetrahydro-2H-pyran-2-yl)oxy)-3,5,8, 10, 12, 14-hexamethyl-15-oxo-1-oxa-6-azacyclopentadecan-11-yl)oxy)-3-hydroxy-6-methyltetrahydro-2H-pyran-4-yl)-N-methylbenzenesulfonamide]",–,37,–,IC50 (TNF-α; [4]): 5 µM; minimal effective concentration (IL-1β; [5]): 13 µM
CCCNC[C@@]1(O)[C@@H](C)OC(O[C@H]2[C@H](C)[C@@H](O[C@@H]3O[C@H](C)C[C@H](N(C)S(=O)(=O)c4ccccc4)[C@H]3Oc3ccccn3)[C@](C)(O)C[C@@H](C)CN[C@H](C)[C@@H](O)[C@](C)(O)[C@@H](CC)OC(=O)[C@@H]2C)C[C@]1(C)OC (stereo partly drawn) [Example B-130],–,42,6,–
CCCNC[C@]1(O)[C@H](C)O[C@@H](O[C@H]2[C@H](C)[C@@H](O[C@@H]3O[C@H](C)C[C@H](N(C)S(=O)(=O)N(C)Cc4ccc(Cl)cc4)[C@H]3O)[C@](C)(O)C[C@@H](C)CN[C@H](C)[C@@H](O)[C@](C)(O)[C@@H](CC)OC(=O)[C@@H]2C)C[C@@]1(C)OC [Example B-41],–,52,6,–
